From the supplement of paper PMC10307832

Legend:
Assay in all cases: relative viability (nuclei count vs DMSO), 5 days (fraction); higher = more cells survive
[1] = compound: CN(c1ncccc1CNc1nc(Nc2ccc3c(c2)CC(=O)N3)ncc1C(F)(F)F)S(C)(=O)=O + NC(=O)Nc1cc(-c2cccc(F)c2)sc1C(=O)N[C@H]1CCCNC1 [AZD7762] (partner 0.2 µM)
Summary of the method: (§1)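 Lung cancer cell lines in 1536-well plates were dosed by pin tool the day after seeding, either with one drug alone or with a fixed anchor-drug dose plus five library-drug doses (not always all listed) in √10 steps. After 5 days, cells were fixed and their nuclei stained in one step (final 0.05% Triton X-100, 1% formaldehyde, 1 ug/ml Hoechst), then counted on 4× images. Relative viability is the nuclei count in treated wells divided by that in vehicle wells. Values are medians of duplicate plates.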

[2] = compound: CN(c1ncccc1CNc1nc(Nc2ccc3c(c2)CC(=O)N3)ncc1C(F)(F)F)S(C)(=O)=O + COc1cccc2cc(-c3nc([C@H]4CC[C@H](C(=O)O)CC4)n4ncnc(N)c34)[nH]c12 [OSI-027] (partner 0.5 µM)
Summary of the method: as §1

[3] = compound: CN(c1ncccc1CNc1nc(Nc2ccc3c(c2)CC(=O)N3)ncc1C(F)(F)F)S(C)(=O)=O + COc1cc2c(Oc3ccc(NC(=O)C4(C(=O)Nc5ccc(F)cc5)CC4)cc3F)ccnc2cc1OCCCN1CCOCC1 [Foretinib] (partner 0.25 µM)
Summary of the method: as §1

[4] = compound: CN(c1ncccc1CNc1nc(Nc2ccc3c(c2)CC(=O)N3)ncc1C(F)(F)F)S(C)(=O)=O + Nc1nc2[nH]cc(CCc3ccc(C(=O)N[C@@H](CCC(=O)O)C(=O)O)cc3)c2c(=O)[nH]1 [Pemetrexed] (partner 0.2 µM)
Summary of the method: as §1

Cell Line	relative viability ([1]; first compound 0.01 µM)	relative viability ([1]; first compound 0.03162 µM)	relative viability ([1]; first compound 0.1 µM)	relative viability ([1]; first compound 0.3162 µM)	relative viability ([1]; first compound 1 µM)	relative viability ([2]; first compound 0.01 µM)	relative viability ([2]; first compound 0.03162 µM)	relative viability ([2]; first compound 0.1 µM)	relative viability ([2]; first compound 0.3162 µM)	relative viability ([2]; first compound 1 µM)	relative viability ([3]; first compound 0.01 µM)	relative viability ([3]; first compound 0.03162 µM)	relative viability ([3]; first compound 0.1 µM)	relative viability ([3]; first compound 0.3162 µM)	relative viability ([3]; first compound 1 µM)	relative viability ([4]; first compound 0.01 µM)	relative viability ([4]; first compound 0.03162 µM)	relative viability ([4]; first compound 0.1 µM)	relative viability ([4]; first compound 0.3162 µM)	relative viability ([4]; first compound 1 µM)
HARA	0.49	0.351	0.368	0.355	0.455	0.54	0.481	0.524	0.612	0.55	1.06	0.864	0.905	0.871	0.664	0.255	0.248	0.199	0.258	0.223
NCI-H2126	1.03	1.08	0.961	0.904	0.902	0.753	0.719	0.638	0.712	0.633	1.34	1.13	1.06	1.19	1.08	0.7	0.718	0.615	0.697	0.632
LXF-289	1.16	1.17	1.1	1.13	1.2	0.806	0.807	0.707	0.641	0.762	1.04	1.01	1.02	1.04	0.968	1.03	0.829	0.864	0.804	0.871
NCI-H460	0.714	0.824	0.643	0.661	0.684	0.666	0.964	0.691	0.705	0.665	1.1	1.09	0.892	1.02	0.972	0.0683	0.0581	0.0611	0.0605	0.0728
NCI-H1395	0.41	0.368	0.421	0.398	0.424	0.657	0.606	0.671	0.738	0.721	0.985	1.12	0.952	0.849	0.954	1	0.882	0.865	0.98	0.909
NCI-H2170	0.942	1.02	0.794	0.96	0.914	0.672	0.695	0.679	0.791	0.752	1.02	1.02	1.01	1.02	0.949	0.305	0.268	0.269	0.266	0.274
